The values that follow come from ChEMBL document CHEMBL6134804, “Identifying thiourea-based hybrids of quinazoline and oxospirochromane as inhibitors of Plasmodium cysteine proteases arresting the parasitic growth at the early trophozoite stage” (Bioorg Med Chem Lett, 2025).

The nature of data set [1]: Inhibition of Plasmodium falciparum ATP4.
Data set [2] is described as follows: Cytotoxicity against African green monkey Vero cells assessed as reduction in cell viability incubated for 72 hrs by MTT assay. Conditions: African green monkey (Chlorocebus sabaeus). Type of data set: toxicity, cell-based.
In data set [3] the test system is Plasmodium falciparum. Kind of data set: Antiplasmodial activity against ring stage of Plasmodium falciparum assessed as developmental arrest at early trophozoite stage at 3 times IC50 concentration measured after 48 hrs by Giemsa staining based analysis. Type of data set: functional, organism-based.
Data set [4] relates to Plasmodium falciparum. Nature of the data set: Antiplasmodial activity against sorbitol-synchronized ring stage chloroquine sensitive Plasmodium falciparum 3D7 infected in human erythrocytes assessed as parasitic growth inhibition incubated for 48 to 50 hrs by SYBR Green 1 based microtiter plate spectrofluorimeteric analysis. The settings on record: 3D7, Erythrocyte. Type of data set: functional, organism-based.

The subject of data set [5] is Plasmodium falciparum. Nature of the data set: Antiplasmodial activity against ring-stage Plasmodium falciparum assessed as reduction in formation of new rings at 3 times IC50 concentration measured after 48 hrs by Giemsa staining based analysis. Type of data set: functional, organism-based.
The nature of data set [6]: Hemolytic activity in human Red blood cells assessed as hemolysis at 100 uM incubated for 2 hrs by spectrofluorimetric analysis. Format: toxicity, cell-based. The settings on record: erythrocyte.
In data set [7] the test system is Plasmodium falciparum. Kind of data set: Antiplasmodial activity against sorbitol-synchronized ring stage chloroquine resistant Plasmodium falciparum W2 infected in human erythrocytes assessed as parasitic growth inhibition incubated for 48 to 50 hrs by SYBR Green 1 based microtiter plate spectrofluorimeteric analysis. Type of data set: functional, organism-based. The settings on record: W2, Erythrocyte.

The test system of data set [8] is Plasmodium falciparum. Kind of data set: Antiplasmodial activity against ring-stage Plasmodium falciparum assessed as enlarged feeding vacuoles with hemoglobin accumulation at 3 times IC50 concentration measured after 48 hrs by Giemsa staining based analysis. Format: functional, organism-based.
The nature of data set [9]: Inhibition of Plasmodium falcipain-3 using Z-Leu-Arg-AMC as substrate preincubated for 30 mins followed by substrate addition and measured after 30 mins by microtiter plate spectrofluorimeteric analysis.
Data set [10] is described as follows: Selectivity index, ratio of IC50 for cytotoxicity against human […] cells to antiplasmodial activity against sorbitol-synchronized ring stage chloroquine sensitive Plasmodium falciparum 3D7 infected in human erythrocytes. Conditions: read-out: Ratio IC50. Format: cell-based.
Data set [11] can be described thus: Resistance index, ratio of IC50 for antiplasmodial activity against chloroquine sensitive Plasmodium falciparum 3D7 infected in human erythrocytes to antiplasmodial activity against chloroquine resistant Plasmodium falciparum W2 infected in human erythrocytes. Format: functional.
For another data set, the system named is A549. Kind of data set: Cytotoxicity against human A549 cells assessed as inhibition of cell growth incubated for 24 hrs by MTT assay. Format: functional, cell-based. The settings on record: A549, 24 h.
Data set [12] is described as follows: Selectivity index, ratio of IC50 for cytotoxicity against African green monkey Vero cells to antiplasmodial activity against sorbitol-synchronized ring stage chloroquine resistant Plasmodium falciparum W2 infected in human erythrocytes. Type of data set: toxicity, cell-based. Conditions: read-out: Ratio IC50.
The nature of data set [13]: Inhibition of Plasmodium falcipain-2 using Z-Leu-Arg-AMC as substrate preincubated for 30 mins followed by substrate addition and measured after 30 mins by microtiter plate spectrofluorimeteric analysis.
A short description of data set [14]: Selectivity index, ratio of IC50 for cytotoxicity against human […] cells to antiplasmodial activity against sorbitol-synchronized ring stage chloroquine resistant Plasmodium falciparum W2 infected in human erythrocytes. Type of data set: cell-based. The settings on record: read-out: Ratio IC50.
Data set [15] in a line: Selectivity index, ratio of IC50 for cytotoxicity against African green monkey Vero cells to antiplasmodial activity against sorbitol-synchronized ring stage chloroquine sensitive Plasmodium falciparum 3D7 infected in human erythrocytes. Type of data set: toxicity, cell-based. Conditions: read-out: Ratio IC50.

Activity calls are given as the source filed them. No cut-off for these calls is given here. Where only a bound is given, the exact number is not on record here.

With `C[C@H]1Cc2c([nH]c3cc(Cl)c(F)cc23)[C@@]2(N1)C(=O)Nc1ccc(Cl)cc12` [CIPARGAMIN], the concentration for half-maximal inhibition (IC50) (commonly the concentration needed to halve the response being measured) in data set [1] is 0.001 µM.
`O=C1CC2(CCN(c3nc(N4CCN(C(=S)Nc5ccc(F)c(Cl)c5)CC4)nc4ccccc34)CC2)Oc2ccccc21`: in data set [2], the 50% inhibitory concentration (IC50) at 72 h was over 1000 µM. For the same compound, the result in the data set on Plasmodium falciparum [3], in the data set on Plasmodium falciparum [5] and with Plasmodium falciparum [8] was Active. For the same compound, the IC50 with Plasmodium falciparum [4] was found to be 3.18 µM; in the data set with Plasmodium falciparum [7] it was 3.56 µM; in data set [9], 4.9 µM; with A549, 58.3 µM; in data set [13], 3.9 µM. The Activity entry in data set [6] is on record as “Non-toxic”. Besides, the selectivity ratio is 18.3 in data set [10], over 281 in data set [12], 16.4 in data set [14] and over 314 in data set [15]. Besides, in [11], the “Ratio IC50” value is on record as 0.89.
`O=C1CC2(CCN(c3nc(N4CCN(C(=S)Nc5cccc(Cl)c5)CC4)nc4ccccc34)CC2)Oc2ccccc21`: the IC50 with Plasmodium falciparum [4] was 6.37 µM; with Plasmodium falciparum [7] it was over 15 µM.
Consider `O=C1CC2(CCN(c3nc(N4CCN(C(=S)Nc5ccc(F)cc5F)CC4)nc4ccccc34)CC2)Oc2ccccc21`, for which the values for the concentration for half-maximal inhibition (IC50) in the data set on Plasmodium falciparum [4] and in the data set with Plasmodium falciparum [7] were 5.28 µM and over 15 µM, respectively.
The corresponding values for `Cc1ccc(NC(=S)N2CCN(c3nc(N4CCC5(CC4)CC(=O)c4ccccc4O5)c4ccccc4n3)CC2)cc1` are 16.1 µM and over 15 µM.
The corresponding values for `O=C1CC2(CCN(c3nc(N4CCN(C(=S)Nc5ccc(F)c(F)c5)CC4)nc4ccccc34)CC2)Oc2ccccc21` are 17.7 µM and over 15 µM.
Regarding `O=C1CC2(CCN(c3nc(N4CCN(C(=S)NCc5ccccc5)CC4)nc4ccccc34)CC2)Oc2ccccc21`, the half-maximal inhibitory concentration (IC50) at 72 h in data set [2] was over 1000 µM. The half-inhibitory concentration (IC50) amounted to 4.79 µM in the data set on Plasmodium falciparum [4]; 14.4 µM in the data set with Plasmodium falciparum [7]; 10.8 µM in [9]; 214 µM in the data set with A549; 10.4 µM in data set [13]. Also, the selectivity ratio in data set [10] was 44.7; in data set [12], over 69.6; in [14], 14.9; in [15] it was over 209. For the same compound, the “Ratio IC50” value in data set [11] was 0.33.
For the compound `COc1cccc(NC(=S)N2CCN(c3nc(N4CCC5(CC4)CC(=O)c4ccccc4O5)c4ccccc4n3)CC2)c1`, the concentration for half-maximal inhibition (IC50) with Plasmodium falciparum [4] amounted to 5.68 µM; with Plasmodium falciparum [7], 3.87 µM. Also, the “Ratio IC50” value in [11] is given as 1.47.
Consider `CC(C)C[C@H](NC(=O)[C@@H]1O[C@H]1C(=O)O)C(=O)NCCCCN=C(N)N`, for which the half-maximal inhibitory concentration (IC50) in data set [9] is 0.116 µM; in data set [13], 0.0544 µM.
Consider `COc1ccccc1NC(=S)N1CCN(c2nc(N3CCC4(CC3)CC(=O)c3ccccc3O4)c3ccccc3n2)CC1`, for which, in data set [2], the IC50 at 72 h is over 1000 µM. For the same compound, the outcome with Plasmodium falciparum [3], in the data set on Plasmodium falciparum [5] and in the data set with Plasmodium falciparum [8] was Active. Besides, the half-maximal inhibitory concentration (IC50) was 3.42 µM in the data set on Plasmodium falciparum [4]; 5.12 µM in the data set with Plasmodium falciparum [7]; 6.2 µM in data set [9]; 82.5 µM with A549; 5.4 µM in data set [13]. The Activity result in data set [6] was “Non-toxic”. The selectivity ratio is 24.1 in data set [10], over 195 in data set [12], 16.1 in data set [14] and over 292 in [15]. Besides, the “Ratio IC50” value in data set [11] was 0.66.
With `O=C1CC2(CCN(c3nc(N4CCN(C(=S)Nc5ccccc5Cl)CC4)nc4ccccc34)CC2)Oc2ccccc21`, the IC50 at 72 h in data set [2] was over 1000 µM. Also, the outcome in the data set on Plasmodium falciparum [3], in the data set with Plasmodium falciparum [5] and in the data set on Plasmodium falciparum [8] was Active. The IC50 was 3.98 µM in the data set with Plasmodium falciparum [4]; 4.43 µM in the data set with Plasmodium falciparum [7]; 5.9 µM in data set [9]; 67.2 µM in the data set with A549; 4.6 µM in data set [13]. Also, the Activity entry in [6] is on record as “Non-toxic”. Moreover, the selectivity ratio in data set [10] was 16.9; in data set [12], over 226; in [14] it was 15.2; in data set [15] it was over 251. Further, the “Ratio IC50” value in data set [11] was determined as 0.9.
Regarding `O=C1CC2(CCN(c3nc(N4CCN(C(=S)Nc5ccc(Br)cc5)CC4)nc4ccccc34)CC2)Oc2ccccc21`, the IC50 in the data set with Plasmodium falciparum [4] was 7.29 µM; in the data set with Plasmodium falciparum [7] it was 4.84 µM. Moreover, in data set [11], the “Ratio IC50” value is 1.51.
Consider `O=C1CC2(CCN(c3nc(N4CCN(C(=S)Nc5cccc(C(F)(F)F)c5)CC4)nc4ccccc34)CC2)Oc2ccccc21`, for which the values for the half-inhibitory concentration (IC50) in the data set with Plasmodium falciparum [4] and with Plasmodium falciparum [7] were 7.97 µM and over 15 µM, respectively.
The corresponding values for `COc1ccc(NC(=S)N2CCN(c3nc(N4CCC5(CC4)CC(=O)c4ccccc4O5)c4ccccc4n3)CC2)cc1` are 23.3 µM and over 15 µM.
For `CCc1nc(N)nc(N)c1-c1ccc(Cl)cc1` [PYRIMETHAMINE], in the data set on Plasmodium falciparum [7], the half-maximal inhibitory concentration (IC50) came out at 0.129 µM.
Take `O=C1CC2(CCN(c3nc(N4CCN(C(=S)Nc5ccc(OC(F)(F)F)cc5)CC4)nc4ccccc34)CC2)Oc2ccccc21`: the IC50 with Plasmodium falciparum [4] is 3.88 µM; in the data set on Plasmodium falciparum [7] it was over 15 µM.
For `O=C1CC2(CCN(c3nc(N4CCN(C(=S)Nc5ccc(F)cc5)CC4)nc4ccccc34)CC2)Oc2ccccc21`, the IC50 at 72 h in [2] was over 1000 µM. The IC50 was 4.66 µM in the data set on Plasmodium falciparum [4]; 8.98 µM with Plasmodium falciparum [7]; 14.4 µM in data set [9]; 307 µM in the data set on A549; 11.4 µM in data set [13]. In addition, the selectivity ratio in data set [10] was 65.8; in [12] it was over 111; in data set [14] it was 34.1; in [15], over 215. Further, in [11], the “Ratio IC50” value came to 0.52.
On to `Cc1cccc(C)c1NC(=S)N1CCN(c2nc(N3CCC4(CC3)CC(=O)c3ccccc3O4)c3ccccc3n2)CC1`, for which, in data set [2], the IC50 at 72 h is over 1000 µM. For the same compound, the outcome with Plasmodium falciparum [3], with Plasmodium falciparum [5] and in the data set on Plasmodium falciparum [8] was Active. Also, the IC50 in the data set on Plasmodium falciparum [4] is 4.83 µM; in the data set with Plasmodium falciparum [7], 7.12 µM; in data set [9], 6.4 µM; in the data set with A549, 102 µM; in [13], 5.9 µM. In [6], the Activity entry is reported as “Non-toxic”. In addition, the selectivity ratio in data set [10] is 21; in data set [12] it was over 140; in data set [14] it was 14.3; in data set [15] it was over 207. The “Ratio IC50” value in data set [11] is 0.68.
In the case of `O=C1CC2(CCN(c3nc(N4CCN(C(=S)Nc5ccccc5)CC4)nc4ccccc34)CC2)Oc2ccccc21`, the IC50 in the data set on Plasmodium falciparum [4] was 24.7 µM; in the data set on Plasmodium falciparum [7] it was over 15 µM.
